Data: patent publication US20240368214A1, “POSITIVE NMDA-MODULATING COMPOUNDS AND METHODS OF USE THEREOF” (SAGE THERAPEUTICS, INC., priority 2021, published 2024)
Read-outs that look alike come from different tables or passages of the source.

Target: T1, recombinant human GluN1/GluN2A receptor (Homo sapiens, UniProt Q05586+Q12879)
T1 construct: expressed in transfected cells; host or cells: HEK293, tetracycline-inducible expression
Experiment: Whole-cell patch clamp of mammalian cells (Syncropatch 384i), NMDA modulation
Format: cell-based
Conditions: HEK293 cells, human GluN1/GluN2A, glutamate 1 μM / glycine 100 μM, -80 mV, peak amplitude increase; for EC50: read-out: EC50
Method in brief: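 Modulation read as fold rise in peak current, (Icomp/Icontrol)−1, from 8 concentrations with ≥2 wells each, four-parameter fit. Compound pre-incubated 120 s then co-applied with 1 μM glutamate plus 100 μM glycine; tetracycline-inducible HEK293 GluN1/GluN2A cells clamped at −80 mV.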

T1 sequence (Q12879 23-1464, other chains not shown): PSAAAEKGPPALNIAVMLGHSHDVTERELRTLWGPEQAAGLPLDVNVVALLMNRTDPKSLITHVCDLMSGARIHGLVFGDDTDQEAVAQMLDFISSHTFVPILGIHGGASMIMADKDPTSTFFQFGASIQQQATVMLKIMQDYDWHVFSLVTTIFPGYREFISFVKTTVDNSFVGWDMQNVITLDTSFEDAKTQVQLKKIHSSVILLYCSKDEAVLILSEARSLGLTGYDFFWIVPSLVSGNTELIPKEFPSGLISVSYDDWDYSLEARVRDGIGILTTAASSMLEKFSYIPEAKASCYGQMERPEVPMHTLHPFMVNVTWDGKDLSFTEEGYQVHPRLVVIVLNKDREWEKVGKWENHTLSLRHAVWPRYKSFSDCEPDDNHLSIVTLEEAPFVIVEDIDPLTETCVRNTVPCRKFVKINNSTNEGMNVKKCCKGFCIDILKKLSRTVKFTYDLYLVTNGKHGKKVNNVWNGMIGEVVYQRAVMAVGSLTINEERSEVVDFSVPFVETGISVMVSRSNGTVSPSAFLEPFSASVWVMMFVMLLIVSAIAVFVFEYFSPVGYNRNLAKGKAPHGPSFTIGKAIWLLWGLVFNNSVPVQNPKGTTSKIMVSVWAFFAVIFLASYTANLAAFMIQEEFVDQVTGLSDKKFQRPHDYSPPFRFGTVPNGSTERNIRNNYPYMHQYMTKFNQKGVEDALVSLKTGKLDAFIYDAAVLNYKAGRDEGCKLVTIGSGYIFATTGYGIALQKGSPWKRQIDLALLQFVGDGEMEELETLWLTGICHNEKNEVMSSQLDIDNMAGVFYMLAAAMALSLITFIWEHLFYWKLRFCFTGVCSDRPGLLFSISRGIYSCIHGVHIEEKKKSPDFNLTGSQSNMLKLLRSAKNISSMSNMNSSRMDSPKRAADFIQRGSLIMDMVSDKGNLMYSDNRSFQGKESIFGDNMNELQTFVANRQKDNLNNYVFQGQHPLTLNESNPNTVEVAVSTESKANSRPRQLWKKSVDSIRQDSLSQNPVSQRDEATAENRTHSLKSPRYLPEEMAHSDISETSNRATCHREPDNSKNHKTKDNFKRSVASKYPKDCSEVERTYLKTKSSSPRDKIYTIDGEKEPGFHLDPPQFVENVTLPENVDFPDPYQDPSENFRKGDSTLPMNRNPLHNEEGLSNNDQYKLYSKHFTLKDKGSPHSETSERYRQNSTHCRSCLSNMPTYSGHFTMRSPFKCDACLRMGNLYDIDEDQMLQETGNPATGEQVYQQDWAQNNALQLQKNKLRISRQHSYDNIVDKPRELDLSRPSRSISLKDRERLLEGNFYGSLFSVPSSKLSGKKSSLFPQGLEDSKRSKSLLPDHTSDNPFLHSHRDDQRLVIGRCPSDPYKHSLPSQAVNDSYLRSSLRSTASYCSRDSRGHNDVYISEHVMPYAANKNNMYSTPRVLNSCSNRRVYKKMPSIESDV

With `CC[C@]1(O)CC[C@@]2(C)[C@@H](CC[C@H]3[C@@H]4[C@@H]5C[C@@H]5[C@H]([C@H](C)CC[C@](C)(O)C(F)(F)F)[C@@]4(C)CC[C@@H]32)C1` [Compound B-3, (2S,4aS,4bS,6aR,7S,7aS,8aR,8bS,8cR,10aS)-2-ethyl-4a,6a-dimethyl-7-((2R,5S)-6,6,6-trifluoro-5-hydroxy-5-methylhexan-2-yl)octadecahydrocyclopropa[4,5]cyclopenta[1,2-a]phenanthren-2-ol] the Emax (Table B-2) was > 200% and the EC50 (Table B-2) was 0.001 to 0.1 µM.

For `C[C@H](CC[C@H](O)C1(C#N)CCC1)[C@H]1CC[C@H]2[C@@H]3CC=C4C[C@@](C)(O)CC[C@]4(C)[C@H]3CC[C@]12C` [Compound C-25, 1-((1S,4R)-1-hydroxy-4-((3S,8S,9S,10R,13R,14S,17R)-3-hydroxy-3,10,13-trimethyl-2,3,4,7,8,9,10,11,12,13,14,15,16,17-tetradecahydro-1H-cyclopenta[a]phenanthren-17-yl)pentyl)cyclobutane-1-carbonitrile], the Emax (Table C-2) was < 100% and the EC50 (Table C-2) was 0.001 to 0.1 µM.

`CC[C@]1(O)CC[C@@]2(C)C(=CC[C@H]3[C@@H]4CC[C@H]([C@H](C)CC[C@@H](O)C(C)C)[C@@]4(CC)CC[C@@H]32)C1` [Compound F-14, (3S,8S,9S,10R,13R,14S,17R)-3,13-diethyl-17-((2R,5R)-5-hydroxy-6-methylheptan-2-yl)-10-methyl-2,3,4,7,8,9,10,11,12,13,14,15,16,17-tetradecahydro-1H-cyclopenta[a]phenanthren-3-ol] showed an EC50 (Table F-2) of 0.1 to 0.5 µM.

In the case of `C[C@H](CC[C@@H](O)C1(C#N)CC1)[C@H]1CC[C@H]2[C@@H]3CC[C@H]4C[C@@](C)(O)CC[C@]4(C)C3=CC[C@]12C` [Compound C-32, 1-((1R,4R)-1-hydroxy-4-((3S,5S,8S,10S,13R,14S,17R)-3-hydroxy-3,10,13-trimethyl-2,3,4,5,6,7,8,10,12,13,14,15,16,17-tetradecahydro-1H-cyclopenta[a]phenanthren-17-yl)pentyl)cyclopropane-1-carbonitrile], the EC50 (Table C-2) is reported as 0.001 to 0.1 µM and the EC50 (Table E-2) is reported as 0.001 to 0.1 µM.

In the case of `CC[C@H](C#N)[C@@H](O)CC[C@@H](C)[C@H]1CC[C@H]2[C@@H]3CC[C@H]4C[C@](O)(CC)CC[C@]4(C)[C@H]3CC[C@]12C` [Compound C-6, (2R,3S,6R)-2-ethyl-6-((3S,5S,8R,9S,10S,13R,14S,17R)-3-ethyl-3-hydroxy-10,13-dimethylhexadecahydro-1H-cyclopenta[a]phenanthren-17-yl)-3-hydroxyheptanenitrile], the Emax (Table C-2) is reported as 100 to 200% and the EC50 (Table C-2) is reported as 0.1 to 0.5 µM.

With `CC[C@]1(O)CC[C@@]2(C)C(=CC[C@H]3[C@@H]4[C@@H]5C[C@@H]5[C@H]([C@H](C)CCCC(C)(C)O)[C@@]4(C)CC[C@@H]32)C1` [Compound B-20, (2S,4aR,4bS,6aR,7S,7aS,8aR,8bS,8cR)-2-ethyl-7-((R)-6-hydroxy-6-methylheptan-2-yl)-4a,6a-dimethyl-1,2,3,4,4a,4b,5,6,6a,7,7a,8,8a,8b,8c,9-hexadecahydrocyclopropa[4,5]cyclopenta[1,2-a]phenanthren-2-ol] the Emax (Table B-2) was 100 to 200% and the EC50 (Table B-2) was 0.001 to 0.1 µM.

In the case of `CC(C)[C@H](O)CC[C@@H](C)[C@H]1CC[C@H]2[C@@H]3CC[C@H]4C[C@@](C)(O)CC[C@]4(C)C3=CC[C@]12C` [Compound E-11, (3S,5S,8S,10S,13R,14S,17R)-17-((2R,5R)-5-hydroxy-6-methylheptan-2-yl)-3,10,13-trimethyl-2,3,4,5,6,7,8,10,12,13,14,15,16,17-tetradecahydro-1H-cyclopenta[a]phenanthren-3-ol], the Emax (Table E-2) is reported as 100 to 200% and the EC50 (Table E-2) is reported as 0.001 to 0.1 µM.
